Laboratory results published in article PMC8177068, “Secondary (iso)BAs cooperate with endogenous ligands to activate FXR under physiological and pathological conditions” (Biochimica et biophysica acta. Molecular basis of disease, 2021).

Experiments:
[1] = target: T1, FXR ligand binding domain (NucleoBAS) (Homo sapiens, UniProt Q96RI1); assay: Confocal FRET bile acid sensor (NucleoBAS) in U2OS cells; format: cell-based; settings: NTCP-NucleoBAS cells in CFBS
T1 construct: nuclear localisation (sensor targeted to the nucleus; signal not described); expressed in transfected cells; host or cells: U2OS cells stably expressing NucleoBAS (PEI transfection, colony selection); some experiments with co-expressed NTCP-mKate2
T1 sequence (Q96RI1 262-486 limits assumed): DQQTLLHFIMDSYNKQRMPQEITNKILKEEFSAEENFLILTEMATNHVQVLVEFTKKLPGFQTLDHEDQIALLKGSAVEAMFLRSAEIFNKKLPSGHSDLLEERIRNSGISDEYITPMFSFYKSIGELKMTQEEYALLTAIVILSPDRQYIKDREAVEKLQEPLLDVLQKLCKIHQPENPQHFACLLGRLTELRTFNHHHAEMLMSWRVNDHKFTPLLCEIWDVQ
Description: Fig. 3.
Fig. 4. […] Error bars represent the SEM.
(§1) (1 picture or pasted object on this page, not shown here)

human ASBT = system: human ASBT; design: method as in PMID 24328955; settings: cited from earlier work
hepatic Cyp7a1 = assay: BA-enriched diet in mice: hepatic BA synthesis gene expression; format: in vivo, mouse; settings: for Cyp7a1 levels in the liver: C57BL/6 J mice, 0.5% (w/w) chow diet
Description: (§2) RNA was extracted from cells or snap-frozen tissue samples (approximately 50 mg) using Trizol according to the manufacturer’s instructions and as described previously in detail. Liver samples were homogenized before extraction in a MagNA Lyser at 6500 rpm for 2 × 20 s intervals. Concentration and quality (absorbance 260/280 & […] ratios) of RNA was measured on a NanoDrop™ 2000 spectrophotometer. Isolated RNA was reverse-transcribed by using the SuperScript II cDNA synthesis enzyme according to the manufacturer’s instructions. Primers used for RT-qPCR were designed using the open-source program Primer3. Primers were designed to span exon-intron boundaries with an amplicon size of less than 150 bp. Relative changes were calculated using a standard curve and 36b4 as the reference genes.
(§3) All animals were housed with a 12-h light-dark cycle in humidity and temperature-controlled conditions and permitted ad libitum consumption of water and a standard mouse diet (Altromin 1324, Lage, Germany). All the experiments were approved by the European Directive 2010/63/EU and approved by the Austrian Federal Ministry of Education, Science and Research (Vienna, Austria; BMWFW-66.010/0124-V/3b/2018, BMWFW-66.010/0129-WF/V/3b/2016, and the Institutional Animal Care and Use Committees at Emory University and were in conformity with the Austrian/US animal law. The Ostα^−/−, Asbt^−/−, Ostα-Asbt DKO (double knockout) and Fxr^−/−mice were generated as previously described. Experiments were performed in 8–12 weeks-old mice. Mice were fed a chow diet (Altromin 1324, Lage, Germany); for BA supplementation experiments, male mice were fed 0.5% (w/w) diet of the indicated BA for the indicated time. CBDL was performed as described previously. Mice were euthanized by decapitation and tissues including liver and intestine were immediately dissected, weighed and frozen in liquid nitrogen for subsequent molecular analysis or preserved for histological analysis.
Fig. 6. Regulation of FXR target genes in vivo after treatment with unconjugated and conjugated bile acids.
Fig. 7.

[2] = system: FXR target genes (Ostb, Kng1); assay: FXR target gene mRNA/pre-mRNA expression in HepG2 cells (qRT-PCR); format: cell-based, human; settings: 6 h
Description: as §2
Fig. 1.

[3] = Metabolism of isoBAs in HepG2 cells (LC-MS); format: in vitro ADME, human; settings: 4 h
Description: The protocol has been published in detail previously. Briefly, internal standards were added to cells in 12-well plates and cells were lysed in methanol. The debris was pelleted, the supernatant dried and dissolved in running buffer. BAs were separated by HPLC using a C18 reversed phase or pentafluorophenyl column prior to quantification by mass spectrometry.
Having established suitable analytical methods, we focused on the metabolism of isoBAs and their 3-alpha-epimers in vitro, using conditions similar to our cell-based FXR assays. […] This may indicate that the presence of the 12-hydroxy group prevents further metabolism into 3α-BAs. It was also observed that a very small amount of 3α-OH BAs were converted to 3-keto intermediates (Fig. 2B, C).
Fig. 2. IsoBAs are metabolized into (3-keto/oxo) derivatives and are partially re-epimerized into 3-alpha hydroxy BAs. HepG2 cells were incubated with (A) isoBAs or (B) their 3-alpha-epimers for 4 h. BAs were measured on C-18 column by LC/MS. Upper panel BAs and isoBAs; lower panel keto/oxo derivatives after incubation. Chromatograms of isoBA-standards are shown in Supplementary Fig. 3A. (C) Merged chromatograms of (A) & (B). […] (*) conversion of isoBAs into 3-alpha hydroxy BAs. (m/z) mass divided by charge number.

intestinal Fgf15 = assay: BA-enriched diet in mice: intestinal FXR target gene expression; format: in vivo, mouse; settings: C57BL/6 J mice, 0.5% (w/w) chow diet
Description: as §2
Fig. 6.

[4] = design: method as in PMID 9126801, PMID 11352980; settings: pilot studies; cited from earlier work
FXR target genes = assay: Single dose gavage of (iso)BAs followed by GW4064 in mice, FXR target genes; format: in vivo, mouse; settings: 60 mg/kg BW followed by GW4064 30 mg/kg BW, 6 h
Description: as §3
Fig. 5. […] Genes were analyzed 6 h after gavage; n = 3–4, values represent the mean ± SEM. *p < 0.05; #p < 0.01.
Supplementary Figure 5. […]
Genes were analyzed 6 hours after gavage; n=3-4, values […]

Bsep = assay: Hepatic Bsep pre-mRNA and mRNA in animals treated with GSK2324; format: in vivo; settings: animals treated with GSK2324, liver
Description: Supplementary Figure 2. (A) Hepatic expression of bile acid transport (Bsep) and BA-synthesis gene (Cyp7a1) pre-mRNA and mRNA after treatment with either vehicle or the synthetic FXR agonist GSK2324 for 30 minutes (n = 7-8), 1 hour (n = 8), or 2 hours (n = 7-8) before sacrifice; values represent the mean ± SEM. *p<0.05, #p<0.01. Effect of the synthetic FXR ligand (GW4064) and isoBAs (isoCDCA, isoDCA, isoUDCA) on mRNA (B) and pre-mRNA (C) levels of Ostb, Kng1, Shp in HepG2 cells treated over time; n=3. Values represent the mean ± SEM.
as §1

CC(CCC(=O)NCC(=O)O)C1CCC2C3C(O)CC4CC(O)CCC4(C)C3CCC12C (centres unmarked) [GCDCA, glycochenodeoxycholic acid, reference compound]
change in FRET ([1]; 10 μM GCDCA): markedly increased FRET

C[C@H](CCC(=O)O)[C@H]1CC[C@H]2[C@@H]3[C@@H](O)C[C@@H]4C[C@H](O)CC[C@]4(C)[C@H]3CC[C@]12C [UDCA, ursodeoxycholic acid]
affinity for human ASBT compared to native BAs (human ASBT): identical binding affinities
Cyp7a1 levels in the liver (hepatic Cyp7a1): repressed
effect on liver Cyp7a1 mRNA expression (hepatic Cyp7a1; CBDL mice, 0.5% (w/w) diet 7 days): inhibited
repression of Cyp7a1 mRNA levels (hepatic Cyp7a1; CBDL-Fxr KO mice): not
repression of Cyp7a1 mRNA levels (hepatic Cyp7a1; CBDL-WT mice): repress

C[C@H](CCC(=O)O)[C@H]1CC[C@H]2[C@@H]3CC[C@@H]4C[C@@H](O)CC[C@]4(C)[C@H]3C[C@H](O)[C@]12C [isoDCA, (5β, 3β, 12α) -dihydroxy-cholan-24-oic acid]
change in FRET signal induced by GCDCA ([1]; 100 μM isoBA at t = 240 s after 10 μM GCDCA): reduced the FRET signal
induction of Ostβ and Kng1 mRNA [2]: barely induced
induction of Ostβ and Kng1 pre-mRNAs [2]: robustly induced
re-epimerization (conversion) into the 3α-stereoisomer [3]: did not observe re-epimerization

C[C@H](CCC(=O)O)[C@H]1CC[C@H]2[C@@H]3[C@H](O)C[C@@H]4C[C@@H](O)CC[C@]4(C)[C@H]3CC[C@]12C [isoCDCA]
induction of Ostβ and Kng1 mRNA [2]: significant induction
induction of Ostβ and Kng1 pre-mRNAs [2]: robustly induced
re-epimerization (conversion) into the 3α-stereoisomer [3]: observed

C[C@H](CCC(=O)O)[C@H]1CC[C@H]2[C@@H]3[C@H](O)C[C@@H]4C[C@@H](O)CC[C@]4(C)[C@H]3C[C@H](O)[C@]12C [isoCA]
induction of Ostβ and Kng1 pre-mRNAs [2]: not
re-epimerization (conversion) into the 3α-stereoisomer [3]: did not observe re-epimerization

C[C@H](CCC(=O)O)[C@H]1CC[C@H]2[C@@H]3[C@H](O)C[C@@H]4C[C@H](O)CC[C@]4(C)[C@H]3C[C@H](O)[C@]12C [CA, cholic acid]
Fgf15 and Ibabp expression in the intestine (intestinal Fgf15): increased
Cyp7a1 levels in the liver (hepatic Cyp7a1): repressed
induction of Ostβ and Kng1 pre-mRNAs [2]: not

C[C@H](CCC(=O)O)[C@H]1CC[C@H]2[C@@H]3CC[C@@H]4C[C@H](O)CC[C@]4(C)[C@H]3CC[C@]12C [LCA, lithocholic acid, reference compound]
induction of Ostβ and Kng1 pre-mRNAs [2]: not

C[C@H](CCC(=O)NCCS(=O)(=O)O)[C@H]1CC[C@H]2[C@@H]3[C@@H](O)C[C@@H]4C[C@H](O)CC[C@]4(C)[C@H]3CC[C@]12C [TUDCA, tauroursodeoxycholic]
expression of pre-mRNA over mRNA as compared to CA and TCA (intestinal Fgf15): more strongly enhanced

C[C@H](CCC(=O)O)[C@H]1CC[C@H]2[C@@H]3[C@@H](O)C[C@@H]4C[C@@H](O)CC[C@]4(C)[C@H]3CC[C@]12C [isoUDCA]
tolerability [4]: well tolerated without any side effects
affinity for human ASBT compared to native BAs (human ASBT): identical binding affinities
repression of Cyp7a1 in the liver compared to UDCA (FXR target genes): even better
induction of Ostβ and Kng1 mRNA [2]: barely induced
induction of Ostβ and Kng1 pre-mRNAs [2]: not
re-epimerization (conversion) into the 3α-stereoisomer [3]: observed

C[C@H](CCC(=O)O)[C@H]1CC[C@H]2[C@@H]3CC[C@@H]4C[C@H](O)CC[C@]4(C)[C@H]3C[C@H](O)[C@]12C [DCA, deoxycholic acid, reference compound]
induction of Ostβ and Kng1 pre-mRNAs [2]: robustly induced

CC(C)c1onc(-c2c(Cl)cccc2Cl)c1COc1ccc(-c2ccc3nc(C(=O)O)ccc3c2)cc1 [GSK2324]
Bsep pre-mRNA induction over the mature Bsep mRNA (Bsep): ~ 20 fold

C[C@H](CCC(=O)O)[C@H]1CC[C@H]2[C@@H]3CC[C@@H]4C[C@@H](O)CC[C@]4(C)[C@H]3CC[C@]12C [isoLCA]
induction of Ostβ and Kng1 pre-mRNAs [2]: not
